Patent publication US8674095B2, “Compounds for treating neuropsychiatric conditions” (Afraxis Holdings, Inc., priority 2008, dated 2014)

Legend:
Assay type in all cases: biochemical
PAK1 = PAK1 (Homo sapiens, UniProt Q13153); test: Z'Lyte fluorescence-based (FRET) kinase assay, PAK1; settings: 50 μM ATP (Km apparent), 1 hr room temperature, 1% DMSO
Protocol: (§1) A fluorescence-based assay format is used to determine IC50 values of test compounds in vitro. Purified PAK kinase is incubated with ATP, and a test compound at various concentrations and a substrate peptide containing two fluorophores. In a second step, the reaction mix is incubated with a site-specific protease that cleaves non-phosphorylated but not phosphorylated substrate peptide, disrupting the FRET signal generated by the two fluorophores in the cleaved peptide (Z′Lyte™ Kinase assay platform; Life Technologies).
(§2) Reagents: 50 mM HEPES, pH 7.5; 0.01% BRIJ-35; 10 mM MgCl2; 1 mM EGTA, 2 uM substrate peptide Ser/Thr20 (proprietary Life Technologies Sequence), PAK enzyme [2.42-30.8 ng for PAK1, 0.29-6 ng for PAK2, 1.5-20 ng for PAK3 and 0.1-0.86 ng for PAK4; actual enzyme amounts depend on lot activity of the enzyme preparation]
(§3) Test compounds are dissolved in DMSO at various concentrations; the final DMSO concentration in the assay reaction is 1%.
(§4) ATP concentration at Km apparent is used in the assay [50 μM ATP for PAK1 assay, 75 μM ATP for PAK2 assay, 100 μM ATP for PAK3 assay, 5 μM ATP for PAK-4 assay] in a total assay volume of […] Assay reactions are incubated at room temperature for 1 hr. Following the kinase reaction, 5 μl of 1:256 dilution of development solution A (Life Technologies) is added and the reaction mix is incubated for an additional 1 hr at room temperature.
(§5) Plates are analyzed in a standard fluorescence plate reader (Tecan or equivalent) using an excitation wavelength of 400 nm and emission wavelengths of 445 nm and 520 nm. Inhibition of kinase reaction is determined by emission ratio=emission@445 nm/emission@520 nm

PAK2 = PAK2 (Homo sapiens, UniProt Q13177); test: Z'Lyte fluorescence-based (FRET) kinase assay, PAK2; settings: 75 μM ATP (Km apparent), 1 hr room temperature, 1% DMSO
Protocol: as §1, §2, §3, §4, §5

PAK3 = PAK3 (Homo sapiens, UniProt O75914); test: Z'Lyte fluorescence-based (FRET) kinase assay, PAK3; settings: 100 μM ATP (Km apparent), 1 hr room temperature, 1% DMSO
Protocol: as §1, §2, §3, §4, §5

PAK4 = PAK4 (Homo sapiens, UniProt O96013); test: Z'Lyte fluorescence-based (FRET) kinase assay, PAK4; settings: 5 μM ATP (Km apparent), 1 hr room temperature, 1% DMSO
Protocol: as §1, §2, §3, §4, §5

PAK1, PAK2, PAK3, PAK-4 = test: PAK isoform inhibition profile of example compounds; settings: classification of example compounds in the description; underlying IC50 data in Table 8
From the text: In some embodiments, the PAK inhibitor is a Group I PAK inhibitor that inhibits, for example, one or more Group I PAK polypeptides, for example, PAK1, PAK2, and/or PAK3. […] In some embodiments, the PAK inhibitor is a PAK2 inhibitor. In some embodiments, the PAK inhibitor is a PAK3 inhibitor. In some embodiments, the PAK inhibitor is a mixed PAK1/PAK3 inhibitor. […] In some embodiments, the PAK inhibitor is a Group II PAK inhibitor that inhibits one or more Group II PAK polypeptides, for example PAK-4, PAK5, and/or PAK6. In some embodiments, the PAK inhibitor is a PAK4 inhibitor. In some embodiments, the PAK inhibitor is a PAK5 inhibitor. In some embodiments, the PAK inhibitor is a PAK6 inhibitor.
as §1, §2, §3, §4, §5

Chain of PAK2 (Q13177 whole entry): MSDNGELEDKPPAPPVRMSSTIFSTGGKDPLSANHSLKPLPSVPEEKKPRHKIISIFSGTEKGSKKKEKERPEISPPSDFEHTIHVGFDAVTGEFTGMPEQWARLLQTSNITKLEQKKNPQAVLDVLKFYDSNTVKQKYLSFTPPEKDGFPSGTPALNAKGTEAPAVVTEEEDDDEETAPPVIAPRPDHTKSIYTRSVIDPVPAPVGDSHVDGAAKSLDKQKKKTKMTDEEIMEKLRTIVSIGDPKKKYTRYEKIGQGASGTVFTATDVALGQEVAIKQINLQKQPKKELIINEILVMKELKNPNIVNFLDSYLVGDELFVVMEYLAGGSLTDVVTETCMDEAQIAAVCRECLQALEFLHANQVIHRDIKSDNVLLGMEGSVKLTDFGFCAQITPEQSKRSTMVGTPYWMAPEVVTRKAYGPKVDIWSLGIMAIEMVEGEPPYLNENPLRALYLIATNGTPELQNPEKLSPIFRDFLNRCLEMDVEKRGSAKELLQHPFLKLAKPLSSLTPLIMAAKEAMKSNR
Chain of PAK3 (O75914 whole entry): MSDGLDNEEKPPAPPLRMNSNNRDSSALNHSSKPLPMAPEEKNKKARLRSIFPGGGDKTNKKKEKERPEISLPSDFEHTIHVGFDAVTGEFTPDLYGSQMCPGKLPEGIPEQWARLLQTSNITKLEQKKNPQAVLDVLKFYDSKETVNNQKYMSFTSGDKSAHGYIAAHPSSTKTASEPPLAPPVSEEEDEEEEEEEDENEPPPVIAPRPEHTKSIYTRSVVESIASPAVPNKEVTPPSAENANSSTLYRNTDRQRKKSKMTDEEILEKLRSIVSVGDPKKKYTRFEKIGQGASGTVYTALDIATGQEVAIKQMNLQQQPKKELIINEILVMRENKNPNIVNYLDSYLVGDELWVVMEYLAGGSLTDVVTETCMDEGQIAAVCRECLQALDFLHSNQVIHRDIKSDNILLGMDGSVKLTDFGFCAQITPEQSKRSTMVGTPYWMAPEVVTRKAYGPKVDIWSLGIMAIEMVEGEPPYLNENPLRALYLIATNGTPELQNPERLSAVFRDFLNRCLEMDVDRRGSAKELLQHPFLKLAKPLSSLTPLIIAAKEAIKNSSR
Chain of PAK1 (Q13153 whole entry): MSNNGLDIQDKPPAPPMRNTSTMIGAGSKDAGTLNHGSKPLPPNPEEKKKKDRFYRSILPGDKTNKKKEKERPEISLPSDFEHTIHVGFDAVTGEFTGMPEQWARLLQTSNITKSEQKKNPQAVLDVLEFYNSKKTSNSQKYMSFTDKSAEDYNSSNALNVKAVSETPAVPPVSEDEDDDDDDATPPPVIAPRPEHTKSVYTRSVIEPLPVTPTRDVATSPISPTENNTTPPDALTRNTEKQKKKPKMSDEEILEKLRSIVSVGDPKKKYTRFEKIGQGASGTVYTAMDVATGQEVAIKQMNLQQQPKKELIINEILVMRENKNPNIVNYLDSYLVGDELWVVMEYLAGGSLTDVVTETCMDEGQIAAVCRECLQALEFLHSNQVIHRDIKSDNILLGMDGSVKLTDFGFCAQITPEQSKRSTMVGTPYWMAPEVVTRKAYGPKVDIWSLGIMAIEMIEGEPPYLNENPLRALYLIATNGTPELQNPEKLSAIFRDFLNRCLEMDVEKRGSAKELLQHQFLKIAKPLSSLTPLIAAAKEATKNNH
Chain of PAK4 (O96013 whole entry): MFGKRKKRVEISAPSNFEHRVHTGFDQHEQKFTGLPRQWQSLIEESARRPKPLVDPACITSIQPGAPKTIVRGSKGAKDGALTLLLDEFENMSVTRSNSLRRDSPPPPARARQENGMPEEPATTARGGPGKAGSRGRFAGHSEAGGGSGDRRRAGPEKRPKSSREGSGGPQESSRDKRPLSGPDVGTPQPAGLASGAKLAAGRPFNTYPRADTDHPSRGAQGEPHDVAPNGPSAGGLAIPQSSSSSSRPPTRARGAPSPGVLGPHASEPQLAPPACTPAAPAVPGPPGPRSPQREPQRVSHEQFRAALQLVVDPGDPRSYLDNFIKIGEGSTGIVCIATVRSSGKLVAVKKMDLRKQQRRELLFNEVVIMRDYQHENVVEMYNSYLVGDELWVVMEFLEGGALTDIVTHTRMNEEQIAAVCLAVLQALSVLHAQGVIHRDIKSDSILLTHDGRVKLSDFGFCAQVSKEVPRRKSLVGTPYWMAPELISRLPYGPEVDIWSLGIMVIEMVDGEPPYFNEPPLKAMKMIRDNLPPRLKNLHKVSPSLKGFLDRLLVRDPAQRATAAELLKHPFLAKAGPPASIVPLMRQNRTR

SMILES	IC50 (PAK1)	IC50 (PAK2)	IC50 (PAK3)	IC50 (PAK4)	PAK inhibitor type (isoform profile) (PAK1, PAK2, PAK3, PAK-4)
O=c1ccc2cnc(Nc3ccc(N4CCNCC4)c(F)c3)nc2n1Cc1ccccc1C(F)(F)F [Compound 62]	< 1 µM	< 1 µM	< 1 µM	< 1 µM	mixed PAK1/PAK2/PAK3/PAK-4 inhibitor
CN1CCN(c2ccc(Nc3ncc4cc(-c5ccccc5)c(=O)n(Cc5ccccc5C(F)(F)F)c4n3)cc2)CC1 [Compound 119]	< 1 µM	< 1 µM	< 1 µM	> 10 µM	inhibits all three Group I PAK isoforms (PAK1, 2 and PAK3) with equal or similar potency
O=c1ccc2cnc(Nc3ccc(N4CCNCC4)c(F)c3)nc2n1Cc1ccccc1-c1cccs1 [Compound 78]	< 1 µM	< 1 µM	< 1 µM	< 1 µM	mixed PAK1/PAK2/PAK3/PAK-4 inhibitor
CC(=O)N1CCN(c2ccc(Nc3nccc(-c4ccc(NCCN)nc4)n3)cc2)CC1 [Compound 115]	> 10 µM	> 10 µM	> 10 µM	< 1 µM	–
CN1CCN(c2ccc(Nc3nccc(-c4ccc(NCCN)nc4)n3)cc2F)CC1 [Compound 113]	< 1 µM	1 to 10 µM	1 to 10 µM	< 1 µM	mixed PAK1/PAK-4 inhibitor
CN1CCN(c2ccc(Nc3ncc4ccc(=O)n(Cc5ccccc5N5CCOCC5)c4n3)cc2)CC1 [Compound 73]	< 1 µM	< 1 µM	< 1 µM	< 1 µM	mixed PAK1/PAK2/PAK3/PAK-4 inhibitor
CN1CCN(c2ccc(Nc3ncc4ccc(=O)n(CCc5ccccc5C(F)(F)F)c4n3)cc2)CC1 [Compound 66]	< 1 µM	< 1 µM	1 to 10 µM	< 1 µM	mixed PAK1/PAK2/PAK-4 inhibitor
CC(C)CNc1ccc(-c2ccnc(Nc3ccc(N4CCN(C)CC4)cc3)n2)cn1 [Compound 104]	1 to 10 µM	1 to 10 µM	> 10 µM	< 1 µM	–
CN1CCN(c2ccc(Nc3nccc(-c4ccc(NCCN5CCCCC5)nc4)n3)cc2)CC1 [Compound 100]	1 to 10 µM	1 to 10 µM	> 10 µM	< 1 µM	–
NCCNc1ccc(-c2ccnc(Nc3ccc(N4CCNCC4)cc3)n2)cn1 [Compound 111]	< 1 µM	1 to 10 µM	1 to 10 µM	< 1 µM	mixed PAK1/PAK-4 inhibitor
CC(c1ccccc1C(F)(F)F)n1c(=O)ccc2cnc(Nc3ccc(N4CCN(C)CC4)cc3)nc21 (centres unmarked) [Compound 70]	1 to 10 µM	> 10 µM	> 10 µM	1 to 10 µM	–
CN1CCN(c2ccc(Nc3nccc(-c4ccc(N(C)CCN)nc4)n3)cc2)CC1 [Compound 110]	1 to 10 µM	1 to 10 µM	> 10 µM	1 to 10 µM	–
Cc1cc(Nc2nccc(-c3ccc(NCCN4CCCCC4)nc3)n2)ccc1N1CCN(C)CC1 [Compound 107]	1 to 10 µM	1 to 10 µM	> 10 µM	< 1 µM	–
CN1CCN(c2cccc(Nc3nccc(-c4ccc(NCCN)nc4)n3)c2)CC1 [Compound 112]	1 to 10 µM	1 to 10 µM	> 10 µM	< 1 µM	–
CCNc1ccc(-c2ccnc(Nc3ccc(N4CCN(C)CC4)cc3)n2)cn1 [Compound 109]	1 to 10 µM	> 10 µM	> 10 µM	< 1 µM	–

Continued, in another order:

IC50 (PAK1)	IC50 (PAK2)	IC50 (PAK3)	IC50 (PAK4)	SMILES	PAK inhibitor type (isoform profile) (PAK1, PAK2, PAK3, PAK-4)
< 1 µM	< 1 µM	1 to 10 µM	< 1 µM	CN1CCN(c2ccc(Nc3ncc4ccc(=O)n(Cc5c(Cl)cccc5Cl)c4n3)cc2)CC1 [Compound 57]	mixed PAK1/PAK2/PAK-4 inhibitor
< 1 µM	< 1 µM	< 1 µM	1 to 10 µM	CN1CCN(c2ccc(Nc3ncc4ccc(=O)n(Cc5ccccc5-c5cccs5)c4n3)cc2)CC1 [Compound 77]	inhibits all three Group I PAK isoforms (PAK1, 2 and PAK3) with equal or similar potency
< 1 µM	< 1 µM	< 1 µM	< 1 µM	CN1CCN(c2ccc(Nc3ncc4ccc(=O)n(Cc5c(Cl)cccc5Br)c4n3)cc2)CC1 [Compound 71]	mixed PAK1/PAK2/PAK3/PAK-4 inhibitor
< 1 µM	< 1 µM	< 1 µM	< 1 µM	CC(C)Oc1ccccc1Cn1c(=O)ccc2cnc(Nc3ccc(N4CCN(C)CC4)cc3)nc21 [Compound 69]	mixed PAK1/PAK2/PAK3/PAK-4 inhibitor
< 1 µM	< 1 µM	< 1 µM	< 1 µM	CN1CCN(c2ccc(Nc3ncc4ccc(=O)n(Cc5ccccc5Br)c4n3)cc2)CC1 [Compound 27, 8-(2-bromobenzyl)-2-(4-(4-methylpiperazin-1-yl)phenylamino)pyrido[2,3-d]pyrimidin-7(8H)-one]	mixed PAK1/PAK2/PAK3/PAK-4 inhibitor
< 1 µM	< 1 µM	< 1 µM	1 to 10 µM	CN1CCN(c2ccc(Nc3ncc4ccc(=O)n(Cc5c(Cl)cccc5C5CC5)c4n3)cc2)CC1 [Compound 84]	inhibits all three Group I PAK isoforms (PAK1, 2 and PAK3) with equal or similar potency
1 to 10 µM	1 to 10 µM	1 to 10 µM	> 10 µM	CN1CCN(c2ccc(Nc3ncc4ccc(=O)n(Cc5ccccc5-c5cc(C(F)(F)F)nn5C)c4n3)cc2)CC1 [Compound 76]	–
< 1 µM	< 1 µM	< 1 µM	< 1 µM	CN1CCN(c2ccc(Nc3ncc4ccc(=O)n(Cc5ccccc5C5CC5)c4n3)cc2)CC1 [Compound 81, 8-(2-cyclopropylbenzyl)-2-(4-(4-methylpiperazin-1-yl)phenylamino)pyrido[2,3-d]pyrimidin-7(8H)-one]	mixed PAK1/PAK2/PAK3/PAK-4 inhibitor
< 1 µM	1 to 10 µM	1 to 10 µM	1 to 10 µM	Cc1noc(-c2ccccc2Cn2c(=O)ccc3cnc(Nc4ccc(N5CCN(C)CC5)cc4)nc32)n1 [Compound 75]	PAK1 inhibitor
< 1 µM	1 to 10 µM	1 to 10 µM	< 1 µM	COc1cccc(F)c1Cn1c(=O)ccc2cnc(Nc3ccc(N4CCN(C)CC4)cc3)nc21 [Compound 61]	mixed PAK1/PAK-4 inhibitor
< 1 µM	1 to 10 µM	1 to 10 µM	< 1 µM	Cc1ccc(F)cc1Cn1c(=O)ccc2cnc(Nc3ccc(N4CCN(C)CC4)cc3)nc21 [Compound 59]	mixed PAK1/PAK-4 inhibitor
1 to 10 µM	> 10 µM	> 10 µM	> 10 µM	CN1CCN(c2ccc(Nc3ncc4ccc(=O)n(Cc5c(Cl)cccc5-c5cccs5)c4n3)cc2)CC1 [Compound 83]	–
